Source: PMC4368482 (Nature, 2014)

Molecular target: T1, tyrosyl tRNA synthetase (TyrRS) (Homo sapiens, UniProt P54577)
T1 sequence (P54577 1-528): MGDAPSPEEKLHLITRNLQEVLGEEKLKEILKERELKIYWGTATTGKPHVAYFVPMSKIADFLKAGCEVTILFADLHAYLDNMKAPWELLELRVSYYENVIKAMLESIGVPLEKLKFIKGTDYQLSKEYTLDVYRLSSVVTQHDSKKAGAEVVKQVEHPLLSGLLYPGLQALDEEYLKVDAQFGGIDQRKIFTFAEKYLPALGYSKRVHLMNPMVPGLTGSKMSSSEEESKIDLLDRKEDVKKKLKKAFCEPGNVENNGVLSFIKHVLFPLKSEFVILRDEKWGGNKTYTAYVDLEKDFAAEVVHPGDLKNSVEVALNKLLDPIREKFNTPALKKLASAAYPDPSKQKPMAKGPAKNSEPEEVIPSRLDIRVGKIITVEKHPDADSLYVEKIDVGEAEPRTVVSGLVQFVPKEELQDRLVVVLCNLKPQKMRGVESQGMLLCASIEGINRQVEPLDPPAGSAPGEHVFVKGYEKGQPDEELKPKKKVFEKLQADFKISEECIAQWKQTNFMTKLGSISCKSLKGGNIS
Assay: X-ray co-crystal structure
Type: biochemical

Work on Oc1ccc(/C=C/c2cc(O)cc(O)c2)cc1 [RSV, resveratrol] yielded a Ki of 22 µM.
